In the supplement of paper PMC10307832:

Experiments:
Test in all cases: relative viability (nuclei count vs DMSO), 5 days (fraction); higher = more cells survive
Midostaurin + Crizotinib = compound: CO[C@@H]1[C@H](N(C)C(=O)c2ccccc2)C[C@H]2O[C@]1(C)n1c3ccccc3c3c4c(c5c6ccccc6n2c5c31)C(=O)NC4 [Midostaurin] + C[C@@H](Oc1cc(-c2cnn(C3CCNCC3)c2)cnc1N)c1c(Cl)ccc(F)c1Cl [Crizotinib] (partner 1 µM)
In short: (§1)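 For relative viability, nuclei counts in treated wells were divided by those in vehicle wells. Lung cancer cell lines had been pin-tool dosed in 1536-well plates the day after seeding and cultured for 5 days, then fixed and stained in one step (final 0.05% Triton X-100, 1% formaldehyde, 1 ug/ml Hoechst) and imaged at 4×. Doses were one drug alone or a fixed anchor-drug dose plus five library-drug doses (not always all listed) in √10 steps, and values are duplicate-plate medians.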

Midostaurin + Linsitinib = compound: CO[C@@H]1[C@H](N(C)C(=O)c2ccccc2)C[C@H]2O[C@]1(C)n1c3ccccc3c3c4c(c5c6ccccc6n2c5c31)C(=O)NC4 [Midostaurin] + C[C@]1(O)C[C@@H](c2nc(-c3ccc4ccc(-c5ccccc5)nc4c3)c3c(N)nccn32)C1 [Linsitinib] (partner 1 µM)
In short: as §1

Midostaurin + Pictilisib = compound: CO[C@@H]1[C@H](N(C)C(=O)c2ccccc2)C[C@H]2O[C@]1(C)n1c3ccccc3c3c4c(c5c6ccccc6n2c5c31)C(=O)NC4 [Midostaurin] + CS(=O)(=O)N1CCN(Cc2cc3nc(-c4cccc5[nH]ncc45)nc(N4CCOCC4)c3s2)CC1 [Pictilisib] (partner 1 µM)
In short: as §1

Midostaurin + Tozasertib = compound: CO[C@@H]1[C@H](N(C)C(=O)c2ccccc2)C[C@H]2O[C@]1(C)n1c3ccccc3c3c4c(c5c6ccccc6n2c5c31)C(=O)NC4 [Midostaurin] + Cc1cc(Nc2cc(N3CCN(C)CC3)nc(Sc3ccc(NC(=O)C4CC4)cc3)n2)n[nH]1 [Tozasertib] (partner 0.1 µM)
In short: as §1

Midostaurin + OSI-027 = compound: CO[C@@H]1[C@H](N(C)C(=O)c2ccccc2)C[C@H]2O[C@]1(C)n1c3ccccc3c3c4c(c5c6ccccc6n2c5c31)C(=O)NC4 [Midostaurin] + COc1cccc2cc(-c3nc([C@H]4CC[C@H](C(=O)O)CC4)n4ncnc(N)c34)[nH]c12 [OSI-027] (partner 0.5 µM)
In short: as §1

Cell Line | relative viability (Midostaurin + Crizotinib; first compound 0.01 µM) | relative viability (Midostaurin + Crizotinib; first compound 0.1 µM) | relative viability (Midostaurin + Crizotinib; first compound 0.3162 µM) | relative viability (Midostaurin + Linsitinib; first compound 0.01 µM) | relative viability (Midostaurin + Linsitinib; first compound 0.1 µM) | relative viability (Midostaurin + Linsitinib; first compound 0.3162 µM) | relative viability (Midostaurin + Pictilisib; first compound 0.01 µM) | relative viability (Midostaurin + Pictilisib; first compound 0.1 µM) | relative viability (Midostaurin + Pictilisib; first compound 0.3162 µM) | relative viability (Midostaurin + Tozasertib; first compound 0.01 µM) | relative viability (Midostaurin + Tozasertib; first compound 0.03162 µM) | relative viability (Midostaurin + Tozasertib; first compound 0.1 µM) | relative viability (Midostaurin + Tozasertib; first compound 0.3162 µM) | relative viability (Midostaurin + OSI-027; first compound 0.01 µM) | relative viability (Midostaurin + OSI-027; first compound 0.03162 µM) | relative viability (Midostaurin + OSI-027; first compound 0.1 µM) | relative viability (Midostaurin + OSI-027; first compound 0.3162 µM) | relative viability (Midostaurin + Crizotinib; first compound 0.03162 µM) | relative viability (Midostaurin + Linsitinib; first compound 0.03162 µM) | relative viability (Midostaurin + Pictilisib; first compound 0.03162 µM)
LCLC-97TM1 | 0.418 | 0.205 | 0.304 | 0.193 | 0.145 | 0.184 | 0.199 | 0.163 | 0.313 | 0.21 | 0.218 | 0.247 | 0.257 | 0.439 | 0.404 | 0.434 | 0.557 | – | – | –
LCLC-103H | 1.05 | 0.982 | 1.02 | 1.12 | 1.16 | 1.14 | 0.72 | 0.6 | 0.648 | 0.522 | 0.45 | 0.456 | 0.379 | 0.506 | 0.417 | 0.425 | 0.465 | 1.01 | 1.16 | 0.541
LK-2 | 0.243 | 0.233 | 0.17 | 0.462 | 0.559 | 0.816 | 0.592 | 0.586 | 0.599 | 0.175 | 0.147 | 0.18 | 0.173 | 0.232 | 0.232 | 0.248 | 0.197 | 0.235 | 0.62 | 0.555
LOU-NH91 | 0.753 | 0.758 | 0.721 | 1.05 | 0.958 | 0.953 | 0.541 | 0.514 | 0.562 | 0.722 | 0.608 | 0.653 | 0.642 | 0.74 | 0.67 | 0.747 | 0.802 | 0.748 | 0.885 | 0.54
LU99A | 0.603 | 0.541 | 0.533 | 0.5 | 0.408 | 0.407 | 0.299 | 0.302 | 0.245 | 0.227 | 0.304 | 0.259 | 0.244 | 0.279 | 0.309 | 0.258 | 0.277 | 0.634 | 0.503 | 0.316
LXF-289 | 0.815 | 0.764 | 0.831 | 1 | 0.866 | 0.953 | 0.812 | 0.764 | 0.598 | 0.23 | 0.23 | 0.178 | 0.176 | 0.819 | 0.864 | 0.842 | 0.743 | 0.78 | 0.967 | 0.766
NCI-H23 | 0.479 | 0.355 | 0.41 | 0.53 | 0.362 | 0.508 | 0.448 | 0.439 | 0.326 | 0.344 | 0.575 | 0.348 | 0.259 | 0.562 | 0.592 | 0.524 | 0.513 | 0.512 | 0.698 | 0.402
NCI-H322M | 0.982 | 0.912 | 0.905 | 0.993 | 1.08 | 1.08 | 0.52 | 0.5 | 0.594 | 0.474 | 0.477 | 0.481 | 0.544 | 0.633 | 0.489 | 0.595 | 0.569 | 0.948 | 0.945 | 0.493
NCI-H358 | 0.528 | 0.563 | 0.292 | 0.818 | 0.813 | 0.599 | 0.437 | 0.308 | 0.432 | 0.103 | 0.101 | 0.0978 | 0.112 | 0.894 | 0.73 | 0.788 | 0.776 | 0.596 | 0.607 | 0.222
NCI-H441 | 0.778 | 0.596 | 0.764 | 0.569 | 0.432 | 0.435 | 0.496 | 0.488 | 0.512 | 0.592 | 0.631 | 0.564 | 0.401 | 0.629 | 0.525 | 0.405 | 0.529 | 0.807 | 0.56 | 0.434
NCI-H460 | 0.903 | 0.898 | 0.787 | 0.739 | 0.75 | 0.694 | 0.388 | 0.346 | 0.417 | 0.448 | 0.492 | 0.44 | 0.415 | 0.513 | 0.62 | 0.722 | 0.665 | 0.75 | 0.732 | 0.296
NCI-H520 | 0.69 | 0.691 | 0.525 | 0.924 | 0.968 | 0.787 | 0.257 | 0.3 | 0.362 | 0.434 | 0.411 | 0.457 | 0.407 | 0.293 | 0.24 | 0.403 | 0.359 | 0.668 | 0.991 | 0.239
NCI-H596 | 0.957 | 1.11 | 1.1 | 1.09 | 1.08 | 1.15 | 0.376 | 0.435 | 0.424 | 0.991 | 0.977 | 0.899 | 0.947 | 0.727 | 0.774 | 0.598 | 0.904 | 1.12 | 1.17 | 0.435
NCI-H647 | 1.06 | 0.832 | 0.416 | 1.09 | 1.1 | 0.738 | 0.387 | 0.311 | 0.294 | 0.411 | 0.35 | 0.293 | 0.18 | 0.637 | 0.652 | 0.779 | 0.753 | 0.802 | 1.37 | 0.532
NCI-H650 | 0.574 | 0.773 | 0.444 | 0.715 | 0.76 | 0.508 | 0.829 | 0.835 | 0.628 | 0.657 | 0.751 | 0.749 | 0.615 | 0.439 | 0.455 | 0.507 | 0.456 | 0.748 | 0.862 | 0.794
